Results reported in publication PMC12064818, “A general assay platform to study protein pharmacology using ligand-dependent structural dynamics” (Nature Communications, 2025).
pEC50: −log10 of the molar value. “And” between values parts separate entries of the source, which are not always exact repeats. Identical values can stand only once.

How the values were obtained:
[1] = molecular target: T1, T7 Lig-N-HiBiT (DNA ligase) (Escherichia phage T7, UniProt P00969); assay: SDR assay (aqueous ligand dispense), T7 Lig-N-HiBiT; conditions: for SDR assay data: 1 nM T7 Lig-N-HiBiT; for SDR assay data / SDR response: Log [ATP]; for SDR response: replicates
T1 sequence (P00969 2-359): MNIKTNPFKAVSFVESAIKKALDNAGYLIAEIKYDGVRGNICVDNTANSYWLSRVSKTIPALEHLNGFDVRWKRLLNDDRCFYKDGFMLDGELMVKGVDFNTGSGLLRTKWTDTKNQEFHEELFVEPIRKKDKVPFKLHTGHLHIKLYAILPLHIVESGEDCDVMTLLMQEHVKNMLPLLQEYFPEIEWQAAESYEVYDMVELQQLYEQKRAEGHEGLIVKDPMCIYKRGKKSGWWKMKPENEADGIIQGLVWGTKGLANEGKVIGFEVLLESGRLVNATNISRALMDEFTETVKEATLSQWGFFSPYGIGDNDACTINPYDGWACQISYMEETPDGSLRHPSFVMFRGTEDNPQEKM

[2] = molecular target: C. elegans iPGM-C-HiBiT (Caenorhabditis elegans, UniProt G5EFZ1); assay: iPGM coupled-enzyme assay, C. elegans iPGM-C-HiBiT; type: biochemical; parameters: cDNA, containing Phe2-Ile539 and the 6xHis tag; His6 (C); made in house; host or cells: E. coli; conditions: C. elegans iPGM-C-HiBiT Std 5 nM; ligand […] Std
Protocol: The enzyme activity of C. elegans or B. malayi iPGM-C-HiBiT was measured using the functional coupled-enzyme luminescence end-point output assay for iPGM as previously described[16],[41],[68]. Briefly, the indicated concentration of 4 μL of iPGM-C-HiBiT was dispensed into 1536-well white, high solid base, medium bind plates in a pH 8.0 iPGM assay buffer (30 mM Tris-HCl, 5 mM magnesium sulfate, 20 mM potassium chloride and 0.08% BSA) with the BioRaptr 2. Compounds and controls were added to each plate with a pintool as described in Supplementary Data 8. Enzymes were incubated with peptide for > 20 min at ambient temperature, protected from light. […] Enzyme was at 5 nM final concentration for the standard assay with an estimated KM 3-phosphoglycerate (3PG) substrate concentration of 400 μM. Plates were incubated at ambient temperature for 10 min, protected from light, then measured by a ViewLux plate reader. […] See Supplementary Table 6 for additional details.
Supplementary Table 6. Protocol for Co- factor independent phosphoglycerate mutase (iPGM) coupled-enzyme assay
Supplementary Table 6: Protocol for Co-factor independent phosphoglycerate m utase (iPGM) coupled- enzym e assay […]
No enzym e control (colum n 1) and enzym e solutions (5 nM Bm iPGM-C-HiBiT or Ce iPGM-1 Reagent 4 µLC-HiBiT dialyzed against Zn/Mn final assay concentration) in PGM enzym e buffer; white/solid bottom , m edium bind, high base plates (Greiner), dispensed with BioRaptr 2 […]
in 8-pt 1:6 titration series in duplicate); com pounds transferred to respective colum ns with […]
Test com pounds: m acrocyclic peptides at 5 m M stock concentration in 16-pt, 1:3 titration […]
transferred to respective colum ns with Pintool
3 Incubation 20 m inIncubate enzym e + com pounds at am bient tem p for 20 m in, protected from light 4 Reagent 2 µLSubstrate solution; 0.4 m M final concentration 3PG in coupled-enzym e substrate buffer; dispensed with BioRaptr 2
5 Incubation 5 m inAm bient tem perature, protected from light
6 Reagent 4 µLKinase-Glo Plus reagent (Prom ega) prepared according to m anufacturer’s protocol;
7 Incubation 10 m inRoom tem perature, protected from light
8 Detector ViewLuxRead plate lum inescence (Exposure = 1 sec; Gain = Medium; Speed = Slow; Binning = 2X) […]
in 20% glycerol); Bm iPGM-C-HiBiT enzym e 10 µM stock solution in 20% glycerol.
Coupled-enzym e substrate solution: 30 m M Tris-HCl, pH 8.0; 5 m M MgSO4; 20 m M KCl; 9 m M ADP (3 m M final); 0.1 4 units/µl enolase (Millipore Sigm a, Cat# E6126); 0.15 units/µl pyruvate kinase (from rabbit m uscle, Millipore Sigm a, Cat #

[3] = T7 Lig-N-HiBiT (1 nM), ligand 100 µM

Chain of C. elegans iPGM-C-HiBiT (G5EFZ1 2-539): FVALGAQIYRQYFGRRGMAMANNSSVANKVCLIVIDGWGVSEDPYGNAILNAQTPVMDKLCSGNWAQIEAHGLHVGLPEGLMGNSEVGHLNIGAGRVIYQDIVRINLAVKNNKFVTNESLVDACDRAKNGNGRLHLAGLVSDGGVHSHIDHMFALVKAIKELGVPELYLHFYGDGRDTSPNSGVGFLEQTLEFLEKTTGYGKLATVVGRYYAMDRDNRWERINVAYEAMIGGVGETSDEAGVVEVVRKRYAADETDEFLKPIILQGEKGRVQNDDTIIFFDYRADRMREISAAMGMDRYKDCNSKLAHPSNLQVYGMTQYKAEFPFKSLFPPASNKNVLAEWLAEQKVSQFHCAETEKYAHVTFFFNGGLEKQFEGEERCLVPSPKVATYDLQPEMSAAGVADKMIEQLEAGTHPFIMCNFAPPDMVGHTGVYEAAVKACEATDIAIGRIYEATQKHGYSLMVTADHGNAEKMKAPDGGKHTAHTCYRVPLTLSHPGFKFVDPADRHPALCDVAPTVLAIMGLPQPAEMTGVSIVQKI

Compound: Nc1ncnc2c1ncn2[C@@H]1O[C@H](COP(=O)(O)OP(=O)(O)OP(=O)(O)O)[C@@H](O)[C@H]1O [ATP]
- pEC50 [1]: ≤ 4.00
- SDR assay data ([1]; M -2.85): 436.8 and 379.9 and 405.2
- SDR assay data ([1]; M -3.15): 279.5 and 253.1 and 256.0
- SDR assay data ([1]; M -3.45): 148.4 and 136.3 and 161.1
- SDR assay data ([1]; M -3.75): 97.7 and 88.5 and 106.1
- SDR assay data ([1]; M -4.05): 63.0 and 57.2 and 69.3
- SDR assay data ([1]; M -4.35): 47.1 and 49.4 and 60.4
- SDR assay data ([1]; M -4.65): 42.9 and 27.8 and 47.0
- SDR assay data ([1]; M -4.95): 31.1 and 25.7 and 35.7
- SDR assay data ([1]; M -5.55): 21.1 and 18.2 and 32.8
- SDR assay data ([1]; M -6.46): 17.8 and 13.4 and 26.6
- SDR assay data ([1]; M -6.76): 16.5 and 24.2 and 25.4
- SDR response ([1]; M -2.85): 405.2 and 436.8 and 379.9
- SDR response ([1]; M -3.15): 256.0 and 279.5 and 253.1
- SDR response ([1]; M -3.45): 161.1 and 148.4 and 136.3
- SDR response ([1]; M -3.75): 106.1 and 97.7 and 88.5
- SDR response ([1]; M -4.05): 69.3 and 63.0 and 57.2
- SDR response ([1]; M -4.35): 60.4 and 47.1 and 49.4
- SDR response ([1]; M -4.65): 47.0 and 42.9 and 27.8
- SDR response ([1]; M -4.95): 35.7 and 31.1 and 25.7
- SDR response ([1]; M -5.25): 40.3 and 24.1 and 20.1
- SDR response ([1]; M -5.55): 32.8 and 21.1 and 18.2
- SDR response ([1]; M -5.86): 31.3 and 18.8
- SDR response ([1]; M -6.16): 32.1 and 13.9 and 17.4
- SDR response ([1]; M -6.46): 26.6 and 17.8 and 13.4
- SDR response ([1]; M -6.76): 25.4 and 16.5 and 24.2
- SDR assay response (in words) ([1]; T7 Lig-N-HiBiT): strong SDR signal
- SDR assay statistics Ave RLU [1, 3]: 88.7 RLU
- SDR assay statistics S:B [1, 3]: 2.0
- SDR assay statistics S:N [1, 3]: 5.7
- SDR assay statistics Z’ [1, 3]: 0.337
- max resp ([1]; T7 Lig-N-HiBiT, maximum response): 407.3

Compound: CC(C)C[C@H](NC(=O)[C@H](Cc1ccc(O)cc1)NC(=O)[C@@H]1CSCC(=O)N[C@H](Cc2ccc(O)cc2)C(=O)N[C@@H](CC(=O)O)C(=O)N[C@@H](Cc2ccc(O)cc2)C(=O)N2CCC[C@H]2C(=O)NCC(=O)N[C@@H](CC(=O)O)C(=O)N[C@@H](Cc2ccc(O)cc2)C(=O)N1)C(=O)N[C@@H](Cc1ccc(O)cc1)C(=O)NCC(=O)N[C@H](C(=O)N[C@@H](CS)C(=O)NCC(N)=O)[C@@H](C)O [Ce-2]
- Standard assay statistics Ave RLU [2]: 3361.1 RLU
- Standard assay statistics S:B [2]: 8.4
- Standard assay statistics S:N [2]: -16.5
- Standard assay statistics Z’ [2]: 0.816
